Key:
[1] = system: morsus of human oral mucosa; experiment: Therapy of morsus of human oral mucosa by external application; type: in vivo; details: propet containing 0.00001% by weight
Source text: Next, one of the present inventors had confirmed by themself whether or not propet containing low concentration of ginsenoside Rb1 was effective to morsus of mouth or oral mucosa. On May 2nd, 2000, at about 2:00 p.m. after dental treatment, […] had started to have late lunch before waking up from infiltration anesthesia of the left third branch of the trigeminal nerve and periodontal anesthesia due to heavy hunger. They had bitten themself three times their own left lip mucosa and since they felt iron taste (blood) in their oral cavity, as a result of confirmation of their morsus by a mirror, they found at least five regions of erosion or defect of mouth or oral mucosa, further hematocele or hematoma was found at one spot. Since they concluded that if it (i.e. morsus of oral mucosa) was allowed to leave as it is, aphthous stomatitis would be complicated within several days to require a week to ten days for complete cure, propet containing a low concentration (0.00001% by weight) of ginsenoside Rb1, which had been confirmed to show effectiveness and efficacy by animal experiments of the present inventors, was applied with small amount to the five regions with erosion or defect of oral mucosa and one hematocele or hematoma region. External or topical application was performed before and after meal and before and after eating between meals. The external or topical application was performed after tooth brushing was performed as much as possible after the meal. Namely, propet containing 0.00001% by weight of ginsenoside Rb1 was applied externally or topically onto morsus regions of the labial mucosa separately 6-10 times a day. FIG. 7 is a photograph in place of drawing.
Next, one of inventors of the present invention (Sakanaka) had bitten again left lower labial mucosa on May 26, 2000 during lunch, and propet containing 0.00001% by weight of ginsenoside Rb1 was applied topically or externally onto the morsus region. A photograph just after morsus is shown in left of FIG. 8, and a photograph at 72 hours after morsus is shown in right of FIG. 8.
Next, one of the present inventors had confirmed by themself whether propet containing low concentrations of ginsenoside Rb1 was effective for morsus of mouth mucosa or not. On May 2nd, 2000, at about 2:00 p.m. after dental treatment, […] had started to have late lunch before awakening from infiltration anesthesia of the left third division of the trigeminal nerve and periodontal anesthesia due to heavy hunger. They had bitten themself three times their own left lip mucosa and they felt iron taste (blood) in their oral cavity. As a result of confirmation of their morsus by a mirror, they found at least five regions of erosion or defect of mouth mucosa, further hematoma was found at one spot. Since they concluded that if the morsus was allowed to leave as it was, aphthous stomatitis would be developed as a complication to require a week to ten days for complete cure, a small amount of propet containing a low concentration (0.00001% by weight) of ginsenoside Rb1, which had been confirmed to show effectiveness and efficacy by animal experiments of the present inventors, was topically or externally applied to the five regions with erosion or defect of oral mucosa and to one hematoma region. External or topical application was performed before and after meal and before and after eating between meals. […]

[2] = Observation of administered animals for side effects; type: in vivo, rats; details: present experiments, animals carefully observed
Source text: The amount of administration of ginsenoside Rb1, which is used as the preparation(s) for external or topical application to skin or the preparation(s) for external or topical application to mucosa, is far smaller than the amount of intravenous administration.
Actually, as indicated in PCT/JP00/04102 (Brain cell or nerve cell protecting agents comprising ginseng), as far as directing treatment or therapy of cerebral infarction by continuous intravenous administration in a dose of […] (weighing 300 g), dihydroginsenoside Rb1 is thought to be a quite safe pharmaceutical composition. The amount of administration of ginsenoside Rb1, which is used as the preparation(s) for external or topical application to skin or the preparation(s) for external or topical application to mucosa, is far smaller than the amount of intravenous administration.

spinal cord injury = details: continuous intravenous administration 60 pg/day; cited from earlier work

## CC(C)=CCC[C@](C)(O[C@@H]1O[C@H](CO[C@@H]2O[C@H](CO)[C@@H](O)[C@H](O)[C@H]2O)[C@@H](O)[C@H](O)[C@H]1O)[C@H]1CC[C@]2(C)[C@@H]1[C@H](O)C[C@@H]1[C@@]3(C)CC[C@H](O[C@@H]4O[C@H](CO)[C@@H](O)[C@H](O)[C@H]4O[C@@H]4O[C@H](CO)[C@@H](O)[C@H](O)[C@H]4O)C(C)(C)[C@@H]3CC[C@]12C [ginsenoside Rb1]
[1]
  pain in the wounded regions: markedly reduced
[1]; 6-10 times a day, 96 hours after morsus, one person
  epithelization of morsus regions of labial mucosa (FIG. 7): almost complete epithelization
[1]; first case
  complication of aphthous stomatitis after morsus: no complication of aphthous stomatitis was observed
[1]; second case, 72 hours after morsus
  cure of morsus (FIG. 8): rapidly cured without developing aphthous stomatitis as a complication
[1]; such morsus usually requires at least 7 to 10 days
  time in which morsus (wound) healing is markedly promoted: ≤ 96 h
[2]
  side effect in administered animals: no side effect or ill effect was noted
Spinal cord injury
  standing up of bed-ridden rats with spinal cord injury: could stand up bed-ridden rats
